Test results: patent publication US20070270484A1, “3'-N-Substituted-3-O-Substituted Erythronolide a Derivatives” (priority 2003, published 2007)
Converted amounts (≈) assume the structure as drawn.

Key:
S. pneum 1256 (erm) = test: microbe, parasite or virus in culture; type: cell-based, streptococcus pneumoniae; settings: agar dilution, 18-24 hours, 35±2° C., 5% CO2; erm: ribosomal modification (mutation) erm genes
Experimental: (§1) Drug dilutions and the agar plates are prepared by NCCLS method. Inoculum is prepared by direct colony suspensions in normal saline and adjusted to 0.5 McFarland turbidity and subsequently diluted as per NCCLS guidelines in order to obtain 10^4 CFU/spot. CFU/ml of a few randomly selected cultures is performed. The cultures are replicated on the agar plates using replicator (Denley's multipoint). The plates are incubated at 35±2° C. and in 5% CO2 atmosphere (for respiratory and Haemophilus strains) for 18-24 hours at 35±2° C. Minimum inhibitory concentrations (MIC) are determined after 18-24 hours. Q. C. strains are also included in each run of the study. The cation content of Mueller Hinton agar is checked by performing disk […] of 10 μg gentamicin disk against Pseudomonas aeroginosa ATCC 27853. The zone of inhibition should fall between 16-21 mm. The concentration of drug at which there is complete disappearance of growth spot or formation of less than 10 colonies per spot is considered as MIC.

S. pneum AB 29 (erm) = test: microbe, parasite or virus in culture; type: cell-based, streptococcus pneumoniae; settings: agar dilution, 18-24 hours, 35±2° C., 5% CO2; erm: ribosomal modification (mutation) erm genes
Experimental: as §1

S. pneum AB 30 (erm) = test: microbe, parasite or virus in culture; type: cell-based, streptococcus pneumoniae; settings: agar dilution, 18-24 hours, 35±2° C., 5% CO2; erm: ribosomal modification (mutation) erm genes
Experimental: as §1

S. pneum AB 14 (erm) = test: microbe, parasite or virus in culture; type: cell-based, streptococcus pneumoniae; settings: for Minimum Inhibitory Concentrations, S. pneum AB 14 (erm): agar dilution, 18-24 hours, 35±2° C., 5% CO2, erm: ribosomal modification (mutation) erm genes
Experimental: as §1

S. pneum 1294 (mef) = test: microbe, parasite or virus in culture; type: cell-based, streptococcus pneumoniae; settings: agar dilution, 18-24 hours, 35±2° C., 5% CO2; mef: efflux pump mef genes
Experimental: as §1

S. pneum 1275 (erm) = test: microbe, parasite or virus in culture; type: cell-based, streptococcus pneumoniae; settings: for Minimum Inhibitory Concentrations, S. pneum 1275 (erm): agar dilution, 18-24 hours, 35±2° C., 5% CO2, erm: ribosomal modification (mutation) erm genes
Experimental: as §1

MoraXella MI = test: MIC, agar incorporation method (NCCLS agar dilution method); type: cell-based; settings: 18-24 hours, 35±2° C.
Experimental: as §1

S. pneum CS 1687 (mef) = test: as above; type: cell-based, streptococcus pneumoniae; settings: 18-24 hours, 35±2° C., 5% CO2, mef: efflux pump mef genes
Experimental: as §1

S. pneum ATCC 6303 = test: as above; type: cell-based, streptococcus pneumoniae; settings: 18-24 hours, 35±2° C., 5% CO2
Experimental: as §1

S. pneum ATCC 49619 = test: as above; type: cell-based, streptococcus pneumoniae; settings: 35±2° C.; for Minimum Inhibitory Concentrations, S. pneum ATCC 49619: 18-24 hours, 5% CO2
Experimental: as §1

S. pneum AB 34 (mef) = test: as above; type: cell-based, streptococcus pneumoniae; settings: 18-24 hours, 35±2° C., 5% CO2, mef: efflux pump mef genes
Experimental: as §1

S. pneum 1251 (mef) = test: as above; type: cell-based, streptococcus pneumoniae; settings: 18-24 hours, 35±2° C., 5% CO2, mef: efflux pump mef genes
Experimental: as §1

H. inflenza ATCC 49247 = test: as above; type: cell-based, Haemophilus influenzae; settings: agar dilution, 18-24 hours, 35±2° C., 5% CO2
Experimental: Minimum inhibitory concentrations (μg/ml) were obtained for representative compounds of the invention, which are given in Table 2.
as §1

Molecule | Minimum Inhibitory Concentrations, S. pneum 1256 (erm) (S. pneum 1256 (erm)) | Minimum Inhibitory Concentrations, S. pneum AB 29 (erm) (S. pneum AB 29 (erm)) | Minimum Inhibitory Concentrations, S. pneum AB 30 (erm) (S. pneum AB 30 (erm)) | Minimum Inhibitory Concentrations, S. pneum AB 14 (erm) (S. pneum AB 14 (erm)) | Minimum Inhibitory Concentrations, S. pneum 1294 (mef) (S. pneum 1294 (mef)) | Minimum Inhibitory Concentrations, S. pneum 1275 (erm) (S. pneum 1275 (erm)) | Minimum Inhibitory Concentrations, MoraXella MI (MoraXella MI) | Minimum Inhibitory Concentrations, S. pneum CS 1687 (mef) (S. pneum CS 1687 (mef)) | Minimum Inhibitory Concentrations, S. pneum ATCC 6303 (S. pneum ATCC 6303) | Minimum Inhibitory Concentrations, S. pneum ATCC 49619 (S. pneum ATCC 49619) | Minimum Inhibitory Concentrations, S. pneum AB 34 (mef) (S. pneum AB 34 (mef)) | Minimum Inhibitory Concentrations, S. pneum 1251 (mef) (S. pneum 1251 (mef)) | MIC (S. pneum AB 14 (erm); Streptococcus pneumoniae, read-out: Minimum Inhibitory Concentrations, S. pneum AB 14 (erm)) | MIC (S. pneum 1275 (erm); Streptococcus pneumoniae, read-out: Minimum Inhibitory Concentrations, S. pneum 1275 (erm)) | MIC (MoraXella MI; Moraxella, read-out: Minimum Inhibitory Concentrations, MoraXella MI) | MIC (S. pneum ATCC 49619; Streptococcus pneumoniae, ATCC49619, 18-24 hours, 5% CO2, read-out: Minimum Inhibitory Concentrations, S. pneum ATCC 49619) | Minimum Inhibitory Concentrations, H. inflenza ATCC 49247 (H. inflenza ATCC 49247)
CCC1OC(=O)C(C)C(OC(=O)Cc2ccc3ccccc3c2)C(C)C(OC2OC(C)CC(N(C)Cc3ccccc3)C2O)C(C)(OC)CC(C)C(=O)C(C)C(O)C1(C)O (stereo not shown) [Compound No. 73, 3-O-(2-Naphthyl)acetyl-5-O-(3′-N-desmethyl-3′-N-benzyl) desosaminyl-6-O-methyl erythronolide A] | >16 µg/mL | >16 µg/mL | >16 µg/mL | >16 µg/mL | >16 µg/mL | >16 µg/mL | 16 µg/mL | 2 µg/mL | 1 µg/mL | 2 µg/mL | >16 µg/mL | 2 µg/mL |  |  |  |  | 
CCC1OC(=O)C(C)C(OC(=O)Cc2ccc(F)cc2)C(C)C(OC2OC(C)CC(N(C)Cc3ccc([N+](=O)[O-])cc3)C2O)C(C)(OC)CC(C)C(=O)C(C)C(O)C1(C)O (stereo not shown) [Compound No. 24, 3-O-(4-Fluorophenyl)acetyl-5-O-(3′-N-desmethyl-3′-N-(4-nitro)benzyl)desosaminyl-6-O-methyl erythronolide A] | >16 µg/mL | >16 µg/mL | >16 µg/mL | 8 µg/mL | 2 µg/mL | >16 µg/mL | 2 µg/mL | 0.5 µg/mL | 0.5 µg/mL | 0.5 µg/mL | >16 µg/mL | 1 µg/mL |  |  |  |  | 
CCC[C@@H]1C[C@@H](C(=O)N[C@@H]([C@H]2O[C@H](SC)[C@H](O)[C@@H](O)[C@H]2O)[C@H](C)Cl)N(C)C1 [Cl, Clindamycin, reference compound] |  |  |  |  |  |  |  |  |  |  |  |  | > 16 µg/mL | > 16 µg/mL | 2 µg/mL (≈ 4.71 µM) | 0.015 µg/mL (≈ 0.0353 µM) | 
CCC1OC(=O)C(C)C(OC(=O)Cc2ccc(F)cc2F)C(C)C(OC2OC(C)CC(N(C)Cc3ccccc3)C2O)C(C)(OC)CC(C)C(=O)C(C)C(O)C1(C)O (stereo not shown) [Compound No. 74, 3-O-(2,4-Difluorophenyl)acetyl-5-O-(3′-N-desmethyl-3′-N-benzyl) desosaminyl-6-O-methyl erythronolide A] | >16 µg/mL | >16 µg/mL | >16 µg/mL | 16 µg/mL | >16 µg/mL | >16 µg/mL | >16 µg/mL | >16 µg/mL | 8 µg/mL | >16 µg/mL | >16 µg/mL | >16 µg/mL |  |  |  |  | 
CCC1OC(=O)C(C)C(OC(=O)Cc2ccccc2F)C(C)C(OC2OC(C)CC(N(C)Cc3ccc(F)cc3)C2O)C(C)(OC)CC(C)C(=O)C(C)C(O)C1(C)O (stereo not shown) [Compound No. 5, 3-O-(2-Fluorophenyl)acetyl-5-O-[3′-N-desmethyl-3′-N-(4-fluoro)benzyl]desosaminyl-6-O-methyl erythronolide A] | >8 µg/mL |  | >8 µg/mL | >8 µg/mL | 2 µg/mL | >16 µg/mL | >8 µg/mL | 2 µg/mL | 2 µg/mL | 2 µg/mL | >8 µg/mL | 2 µg/mL |  |  |  |  | >128 µg/mL
3-O-(3-Fluorophenyl)acetyl-5-O-(3′-N-desmethyl-3′-N-propargyl)desosaminyl-6-O-methyl erythronolide A [Compound No. 22] | >16 µg/mL |  | >16 µg/mL | >16 µg/mL | 4 µg/mL | >16 µg/mL | 4 µg/mL | 1 µg/mL | 0.5 µg/mL | 0.5 µg/mL | >16 µg/mL | 4 µg/mL |  |  |  |  | >16 µg/mL
3-O-(3-Fluorophenyl)acetyl-5-O-[3′-N-desmethyl-3′-N-cyclopropyl)desosaminyl-6-O-methyl erythronolide A [Compound No. 16] | 16 µg/mL |  | >16 µg/mL | >16 µg/mL | 1 µg/mL | >16 µg/mL | >16 µg/mL | 4 µg/mL | 1 µg/mL | 4 µg/mL | >16 µg/mL | 8 µg/mL |  |  |  |  | >16 µg/mL
3-O-(4-Fluorophenyl)acetyl-5-O-(3′-N-desmethyl-3′-N-allyl)desosaminyl-6-O-methyl erythronolide A [Compound No. 20] | 16 µg/mL |  | >16 µg/mL | >16 µg/mL | 1 µg/mL | >16 µg/mL | 16 µg/mL | 1 µg/mL | 0.5 µg/mL | 0.25 µg/mL | >16 µg/mL | 1 µg/mL |  |  |  |  | >16 µg/mL
3-O-(3-Fluorophenyl)acetyl-5-O-(3′-N-desmethyl-3′-N-allyl)desosaminyl-6-O-methyl erythronolide A [Compound No. 19] | >16 µg/mL | 2 µg/mL | >16 µg/mL | >16 µg/mL | 4 µg/mL | >16 µg/mL | 16 µg/mL | 2 µg/mL | 2 µg/mL | 2 µg/mL | 16 µg/mL | 2 µg/mL |  |  |  |  | 
